Results on 4 compounds are retold here after patent US11339448B2, “Treatment of acute myeloid leukemia” (Ottawa Hospital Research Institute, priority 2018, dated 2022).

Type in all cases: cell-based, human
The test system of test [1] is MTF2 shRNA knockdown (SH3 or SH7) HSPCs. The test can be described thus: Cell cycle (DRAQ5) and PCNA proliferation analysis in HSPCs. The settings on record: for overall PCNA levels (proliferation): MTF2 deficient (SH3 or SH7) HSPCs, 1 μM, 24 hours post-treatment; for population distribution within the cell cycle stages: scramble or MTF2 knockdown HSPCs, 1 μM for 24 hours; for fraction of viable MTF2-deficient cells that were PCNA+: MTF2-deficient HSPCs, 48 hours post-treatment. As to the method: (§1) Cells were sorted using cell surface markers, then fixed in 4% PFA, permeabilized with 0.3% Triton and stained for MTF2 (Genway, clone M96), EZH2 (Millipore, clone AC22), SUZ12 (Millipore, clone 2AO9), H3K27me3 (Cell Signaling, clone C36B11), PCNA (Santa Cruz, clone C10), p53 (Cell Signaling, clone 1C12), or MDM2 (Santa Cruz, clone C18) and appropriate secondary antibodies. Protein expression was determined by flow cytometry compared with an isotype-only control and ran on the LSRFortessa™ Cell Analyzer (BD Biosciences). Data analysis was performed using FlowJo v10.2 to compare mean fluorescent intensity values.
(§2) For cell cycle analysis, cells were fixed and stained with DRAQ5 (BD Biosciences) to assess cell cycle state. For assessing p53 signaling and MTF2 rescue experiments, cells were stained with antibodies against p53, MDM2 or H3K27me3 as above and with DRAQ5 for nucleic acid detection. Cells were analyzed using the ImageStream imaging flow cytometer (Amnis). The nuclear contents of each protein were determined using the preset wizard tool “Nuclear Localization”, within the Amnis IDEAS analysis software.
(§3) Lin^−CD34^+ cells isolated from either umbilical cord blood or primary AML patient bone marrow aspirates were transduced as above, sorted for GFP^+ and cultured in 96-well plates at 100,000 cells/100 uL/well in duplicates. The drugs Daunorubicin, Cytarabine, Nutlin3a and M1773 were dissolved in DMSO. Cytarabine and Daunorubicin were added at concentrations of 1 μM and 0.5 μM, respectively. After 1 hour of incubation with Daunorubicin, cells were collected and transferred into fresh media to remove Daunorubicin from the media. The MDM2 pathway inhibitors, Nutlin3a and M1773 were added at concentrations of 1 μM.

The test system of test [2] is MTF2 deficient refractory AML cells [MD-AML]. The test can be described thus: Cell viability / apoptosis assay (Annexin V/7-AAD) in primary AML patient cells. The settings on record: for apoptosis: MD-AML cells, in combination with Cytarabine or Daunorubicin; for sensitivity to Cytarabine / sensitivity to Daunorubicin: MD-AML, comparable to B-AML; for sensitivity to Cytarabine: combination with Cytarabine; for sensitivity to Daunorubicin: combination with Daunorubicin; for apoptosis / apoptotic effect, MDM2 inhibitor alone: treatment alone, over the course of 48 hours; for viability of CD34+CD38− cells from MD-AML patients: 0.5 μM Daunorubicin or 1 μM Cytarabine, over 48 hours. As to the method:
Lin^−CD34^+ primary AML bone marrow cells were maintained in IMDM media containing SCF (100 ng/mL), FLT3 (50 ng/mL), IL-3 (20 ng/mL), G-CSF (20 ng/mL) and 10^−4M Beta-mercaptoethanol^21. Growth factors were purchased from Peprotech. On Day 1 of infection, cells were incubated with polybrene (6 mg/ml) for 2 hours at 37° C., then combined with viral supernatants containing either a GFP-tagged MTF2 overexpression vector clone or an empty vector control at a MOI of 30.
(§4) Apoptosis was assessed in sorted cells by the dual staining of AnnexinV and 7-AAD (eBiosciences). Flow cytometric analyses of treated samples were performed consistently, using the same gating strategy throughout. Viable cells were categorized as being AnnexinV and 7-AAD negative, late apoptotic/dead cells were categorized as being AnnexinV and 7-AAD positive.
as §3

For test [3], the system named is Lin−CD34+ HSPCs. The test can be described thus: Alkaline comet assay (DNA damage accumulation, Olive moment). The settings on record: for DNA damage accumulation: MTF2-deficient HSPCs, in combination with Cytarabine or Daunorubicin; for DNA damage accumulation (Olive moment): scramble vs MTF2 shRNA transduced HSPCs, over a 48-hour period. Here is the method: Alkaline comet assays were performed using GelBond Films and buffers were prepared as described^22. Slides were stained with SYBR Gold and imaged using Zeiss Axio2 Imaging inverted microscope equipped with a 5× Plan-NEOFLUAR 0.3NA objective and an AxioCam MRm camera through a FITC-compatible filter. At least 10 random fields containing a minimum of 20 non-overlapping comets in each group total were photographed. Blinded imaging acquisition and analysis was performed using ImageJ software (NIH) and the OpenComet comet assay plugin calculating Olive moment (arbitrary units) on the basis of comet head and tail sizes (measured in pixels) and their integral intensity. The magnitude of these parameters depends on time of electrophoresis, staining brightness and image magnification, which were constant within each assay and between experiments. Comet assays were independently repeated using HSPCs isolated from 3 different UCB samples. Statistical significance was determined by two-way ANOVA using GraphPad Prism software version 6.
as §3

For test [4], the system named is Lin−CD34+ HSPCs. The test is described as follows: Cell viability / apoptosis assay (Annexin V/7-AAD) in shRNA-transduced HSPCs. The settings on record: for sensitivity to induction therapy drugs (cell viability): MTF2-deficient HSPCs, in combination with Cytarabine or Daunorubicin. As to the method:
HSPCs (Lin^−CD34^+) were maintained in IMDM media containing bovine serum albumin, insulin, and transferrin (Stem Cell Technologies), 1% PenStrep (ThermoFisher), SCF (100 ng/mL), TPO (50 ng/mL), FLT3 (100 ng/mL), 1% Glutamax (InVitrogen), and LDL (1 μg/ml) (Calbiochem). Growth factors were purchased from Peprotech. On Day 1 of infection, cells were incubated with polybrene (Sigma) (6 mg/ml) for 2 hours at 37° C., then combined with viral supernatants containing either a GFP-tagged MTF2 shRNA clone or a scrambled shRNA control (ThermoFisher) at a MOI of 100. Cells were centrifuged at 400 g for 20 minutes, then maintained at 37° C. On Day 2, the infection was repeated. Cells were grown for 3 days using a fed-batch culture system^21, then sorted for high GFP-expression and viability by negative selection of Propidium Iodide using the Beckman Coulter MoFlo sorter.
as §4, §3

Test [5] deals with MDM2 and p53 levels. The test is described as follows: Imaging flow cytometry of MDM2 and p53 levels in MTF2 knockdown HSPCs. The settings on record: for MDM2 and p53 levels within the nucleus: MTF2 knockdown (SH3) HSPCs, 1 μM. As to the method: as §1, §2, §3
In general terms: In flow cytometry, cells or beads pass a laser one at a time.

Test [6] relates to p53 levels in Lin−CD34+ leukemic cells (MD-AML). The test can be described thus: Imaging flow cytometry of p53 levels in refractory patient leukemic cells. The settings on record: Lin−CD34+ leukemic cells from refractory patient BM aspirates (MD-AML). Here is the method: as §1, §2
Lin^−CD34^+ cells isolated from either umbilical cord blood or primary AML patient bone marrow aspirates were transduced as above, sorted for GFP^+ and cultured in 96-well plates at 100,000 cells/100 uL/well in duplicates. […]

The mark [7] stands for this setting: MTF2 knockdown (SH7) HSPCs, 1 uM.

Regarding `COc1ccc(C2=N[C@@H](c3ccc(Cl)cc3)[C@@H](c3ccc(Cl)cc3)N2C(=O)N2CCNC(=O)C2)c(OC(C)C)c1` [Nutlin3A, 4-[(4S,5R)-4,5-bis(4-chlorophenyl)-2-(4-methoxy-2-propan-2-yloxyphenyl)-4,5-dihydroimidazole-1-carbonyl]piperazin-2-one], in test [1], the “overall PCNA levels (proliferation)” value is given as “decrease in overall PCNA levels”. Also, the “population distribution within the cell cycle stages” value in test [1] is “arresting in G0/G1”. The apoptosis entry in test [2] is “underwent apoptosis”. Also, the “sensitivity to Cytarabine” value in test [2] (48 hours) and in test [2] (within 24 hours) was “increased sensitivity” in each case. Moreover, the “sensitivity to Daunorubicin” value in test [2] (48 hours) and in test [2] (within 24 hours) was “increased sensitivity” each time. Moreover, the “apoptosis / apoptotic effect, MDM2 inhibitor alone” value in test [2] (listed as Nutlin3a) is recorded as “very low apoptotic effect”. For the same compound, the DNA damage accumulation entry in test [3] is listed as “same amount of DNA damage accumulation as that found within scramble controls”. Further, in test [4], the “sensitivity to induction therapy drugs (cell viability)” value is recorded as “sensitized to induction therapy drugs”. The p53 levels result in test [5] (MTF2-deficient HSPCs) is on record as “rescued”; in test [5] (setting [7]), “restored”; in test [6] it was “rescued”. For the same compound, the “MDM2 and p53 levels within the nucleus” value in test [5] is “reestablished MDM2 and p53 levels to those observed in the scramble untreated control”. Besides, in test [5] (setting [7]), the MDM2 levels result is reported as “low”.

With `Nc1ccn([C@@H]2O[C@H](CO)[C@@H](O)[C@@H]2O)c(=O)n1` [Cytarabine], the “fraction of viable MTF2-deficient cells that were PCNA+” value in test [1] is on record as “two-thirds”. Moreover, the “viability of CD34+CD38− cells from MD-AML patients” value in test [2] is listed as “remain viable over 48 hours”. The “DNA damage accumulation (Olive moment)” value in test [3] was “highest levels of DNA damage were found in the scramble control HSPCs”. In test [4] (Homo sapiens, MTF2 shRNA knockdown HSPCs, 48 hours after treatment (Daunorubicin 0.5 μM or Cytarabine 1 μM), read-out: MTF2-deficient cells viable), the viability at 1 µM is over 60%.

On to `CC(C)(C)C[C@H]1N[C@@H](C(=O)NC2CCC(O)CC2)[C@H](c2cccc(Cl)c2F)[C@@]12C(=O)Nc1cc(Cl)ccc12` (stereo partly drawn) [MI-773, (2′R,3S,3′S,5′R)-6-chloro-3′-(3-chloro-2-fluorophenyl)-5′-(2,2-dimethylpropyl)-N-(4-hydroxycyclohexyl)-2-oxospiro[1H-indole-3,4′-pyrrolidine]-2′-carboxamide], for which, in test [1], the “overall PCNA levels (proliferation)” value is “decrease in overall PCNA levels” and the “population distribution within the cell cycle stages” value was “arresting in G0/G1”. In test [2], the apoptosis entry is listed as “underwent apoptosis” and the “apoptosis / apoptotic effect, MDM2 inhibitor alone” value is “very low apoptotic effect”. For the same compound, in test [2] (48 hours), the “sensitivity to Cytarabine” value was “increased sensitivity” and the “sensitivity to Daunorubicin” value is “increased sensitivity”. In test [2] (within 24 hours), the “sensitivity to Cytarabine” value was “increased sensitivity” and the “sensitivity to Daunorubicin” value was “increased sensitivity”. In test [3], the DNA damage accumulation result is on record as “same amount of DNA damage accumulation as that found within scramble controls”. Besides, in test [4], the “sensitivity to induction therapy drugs (cell viability)” value is recorded as “sensitized to induction therapy drugs”. In addition, in test [5] (MTF2-deficient HSPCs), the p53 levels result was “rescued”. The “MDM2 and p53 levels within the nucleus” value in test [5] was “reestablished MDM2 and p53 levels to those observed in the scramble untreated control”. In test [5] (setting [7]), the MDM2 levels entry is on record as “low” and the p53 levels result is listed as “restored”. In addition, the p53 levels entry in test [6] is “rescued”.

Turning to `COc1cccc2c1C(=O)c1c(O)c3c(c(O)c1C2=O)C[C@@](O)(C(C)=O)C[C@@H]3O[C@H]1C[C@H](N)[C@H](O)[C@H](C)O1` [Daunorubicin], the “fraction of viable MTF2-deficient cells that were PCNA+” value in test [1] was “two-thirds”. In addition, the “viability of CD34+CD38− cells from MD-AML patients” value in test [2] is reported as “remain viable over 48 hours”. In addition, in test [3], the “DNA damage accumulation (Olive moment)” value is recorded as “highest levels of DNA damage were found in the scramble control HSPCs”.
